Data set [1] is described as follows: Stability in human liver microsomes. To be noted: 37° C., NADPH. Format: in vitro ADME. The protocol: Half-Life Human Microsomes:
(§1) Compounds were evaluated for stability in human liver microsomes. A 10 mM stock solution of the compound being evaluated was prepared in DMSO and diluted with water:acetonitrile (1:1) to a concentration of 1 mM. A working concentration of 100 μM was prepared by further dilution with water:acetonitrile (1:1). To make the preincubation mixture, 2.5 μL of the diluted compound was combined with 75 μL of human liver microsomes at 3.33 mg/mL, and 85 μL of 100 mM potassium phosphate buffer, and this mixture was pre-incubated for 10 min at 37° C. To make the 60 minute mixture without cofactor, 32.5 μL of the preincubation mixture was combined with 17.5 μL of 100 mM potassium phosphate buffer and incubated for 60 min at 37° C. To make the 0 min sample with cofactor (NADPH), 16.25 μL of the preincubation mixture was combined with 200 μL of acetonitrile containing internal standard and 8.75 μL of cofactor (NADPH). To make the incubation mixture, 62 μL of cofactor (2.85 mM) was combined with the remaining incubation mixture, and incubated for 60 min at 37° C. To prepare the sample mixture to be evaluated, 25 μL incubation mixture was combined with 200 μL of acetonitrile containing internal standard and vortexed for 5 min at 1200 rpm, then centrifuged for 10 min at 4000 rpm. The supernatant was diluted 2 fold with water and injected on LC-MS/MS. The sample mixture was evaluated by LC-MS/MS using 10 mM ammonium acetate with 0.100 FA as the aqueous mobile phase, and methanol as the organic mobile phase.
Background: Liver microsomes are a subcellular fraction often used to study metabolism.

Data set [2] in a line: Stability in mouse liver microsomes. Format: in vitro ADME. The protocol:
as §1
Half-Life Mouse Microsomes:
Compounds were evaluated in mouse liver microsomes following a similar procedure as described above for human liver microsomes. A similar procedure could be used to evaluate compounds in rat liver microsomes.

The test system of the next data set is SREBP. Briefly: Reporter Screening Assay (SRE-luciferase reporter, HepG2). Format: cell-based. To be noted: Homo sapiens; SRE-luciferase reporter HepG2 cells, 24 hours, 0.01 uM to 10 uM; read-out: I: Reporter Screening Assay (Ave EC50 (nM)). The method, then:
Reporter Screening Assay: This assay was used to evaluate the effect on transcriptional activity SREBP of selected compounds using an SRE-luciferase reporter construct. On day 1, 10,000 cells were seeded in a 96 well (white) plate as per the plate map in Growth media without antibiotics. Cells were incubated at 37° C. for 8 hours. After 8 hours, cells were washed with DPBS for complete removal of FBS. DPBS was completely removed and Growth media was replaced with phenol free treatment medium (90 μl) with different FBS concentrations. The cells were then incubated at 37° C. for 24 hours with varying doses (0.01 uM to 10 uM) of compounds. Then a Luciferase assay was performed.
Reagents for performing Luciferase assay were stored at −20° C. To a tube of lyophilized assay substrate was added 1 mL Substrate Solvent and mixed well. The Substrate tube after reconstitution was covered with aluminum foil so as to keep it protected from light. The assay buffer was thawed to room temperature. To 20 mL Assay Buffer was added 200 μL of reconstituted 100× Substrate and mixed well. The reconstituted substrate as well as the assay solution (buffer+substrate) was protected from light throughout the procedure by keeping it covered with aluminum foil. Using a multi-channel pipette, 100 μL Assay Solution (buffer+substrate) was added directly to each sample well in Plate 1, which was incubated for 30 min (plate was covered with aluminum foil). After 30 min incubation, the plate was read for total luminescence. Each well was read for 2 seconds in a plate luminometer. (Microplate reader Envision Microplate reader from Perkin Elmer). Precaution was taken to incubate plate exactly for 30 min prior to reading on the plate reader.
SREBPv1 Reporter cell line: HepG2—#32251. Growth Medium: MEM (Corning 10-010), 10% FBS, 1% GlutaMax (Invitrogen Catalog #35050061), […] (Invitrogen Catalog # A1113803) and 1% Penicillin-Streptomycin (Pen-Strep). Treatment Media: Phenol-free MEM (Invitrogen Catalog #51200-038) and 1% GlutaMax (Invitrogen Catalog #35050061). Luciferase Assay: LightSwitch Luciferase Assay Kit (Catalog #32032). LDH assay: Pierce LDH Cytotoxicity Assay Kit (Catalog # SD249616).

A value given as a limit tells only on which side of the number the result lay.

For the compound `CC(C)(C)c1cc(-c2csc(-c3ccc(S(C)(=O)=O)cc3)c2)ccn1` [Compound I-8723, 2-(tert-butyl)-4-(5-(4-(methylsulfonyl)phenyl)thiophen-3-yl)pyridine], in data set [1], the “percent of compound remaining after 60 min in human liver microsomes” value (from here on “percent of compound remaining”) is recorded as “+++ (>60.1 = +++)”. Also, the “percent parent remaining after 60 min in liver microsomes” value (“percent parent remaining after 60 min” below) in data set [2] is listed as “+++ (>60.1 = +++)”. In the data set with SREBP, the concentration for a half-maximal effect (EC50) (commonly the concentration at which the effect is half-maximal) was above 500 nM.
`CC(C)S(=O)(=O)c1ccc(-c2cc(-c3ccnc(C(C)(C)C)c3)cs2)cc1` [Compound I-8728, 2-(tert-butyl)-4-(5-(4-(isopropylsulfonyl)phenyl)thiophen-3-yl)pyridine]: the “percent of compound remaining” value in data set [1] is recorded as “++ (30.1-60 = ++)”. In data set [2], the “percent parent remaining after 60 min” value was “+++ (>60.1 = +++)”. Further, the EC50 in the data set with SREBP was in the range of 250 to 500 nM.
Taken in the same sequence, the figures for `CC(C)(C)c1cc(-c2csc(-c3ccc(S(=O)(=O)CC4CCCC4)cc3)c2)ccn1` [Compound I-8729, 2-(tert-butyl)-4-(5-(4-((cyclopentylmethyl)sulfonyl)phenyl)thiophen-3-yl)pyridine] were “+ (0-30 = +)”, “+ (0-30 = +)” and above 500 nM.
Regarding `CC(C)NC(=O)Nc1ccc(-c2cc(-c3ccnc(C(C)(C)C)c3)cs2)c(Cl)c1` [Compound I-8731, 1-(4-(4-(2-(tert-butyl)pyridin-4-yl)thiophen-2-yl)-3-chlorophenyl)-3-isopropylurea], in data set [1], the “percent of compound remaining” value is listed as “++ (30.1-60 = ++)”. In addition, the “percent parent remaining after 60 min” value in data set [2] was “++ (30.1-60 = ++)”. Further, the EC50 in the data set with SREBP was below 249 nM.
`CCOC(=O)Nc1ccc(-c2cc(-c3ccnc(C(C)(C)C)c3)cs2)c(Cl)c1` [Compound I-8735, Ethyl (4-(4-(2-(tert-butyl)pyridin-4-yl)thiophen-2-yl)-3-chlorophenyl)carbamate]: in data set [1], the “percent of compound remaining” value is on record as “+++ (>60.1 = +++)”. Further, the “percent parent remaining after 60 min” value in data set [2] is recorded as “+++ (>60.1 = +++)”. The EC50 with SREBP lay within 250 to 500 nM.
With `CC(C)(C)c1cc(-c2csc(-c3ccc(NC(=O)N4CCC(O)CC4)cc3Cl)c2)ccn1` [Compound I-8736, N-(4-(4-(2-(tert-butyl)pyridin-4-yl)thiophen-2-yl)-3-chlorophenyl)-4-hydroxypiperidine-1-carboxamide], the “percent of compound remaining” value in data set [1] is recorded as “+++ (>60.1 = +++)”. Further, the “percent parent remaining after 60 min” value in data set [2] is given as “+++ (>60.1 = +++)”. Further, the EC50 in the data set with SREBP is 250 to 500 nM.
As for `CC(C)OC(=O)Nc1ccc(-c2cc(-c3ccnc(C(C)(C)C)c3)cs2)c(Cl)c1` [Compound I-8741, Isopropyl (4-(4-(2-(tert-butyl)pyridin-4-yl)thiophen-2-yl)-3-chlorophenyl)carbamate], the “percent of compound remaining” value in data set [1] is on record as “+++ (>60.1 = +++)”. For the same compound, the “percent parent remaining after 60 min” value in data set [2] is reported as “+++ (>60.1 = +++)”. In addition, the EC50 in the data set with SREBP was below 249 nM.
For the compound `CC(C)(C)c1cc(-c2csc(-c3ccc(NC(=O)NC4CCC(O)CC4)cc3Cl)c2)ccn1` (stereo not drawn) [Compound I-8742, 1-(4-(4-(2-(tert-butyl)pyridin-4-yl)thiophen-2-yl)-3-chlorophenyl)-3-(4-hydroxycyclohexyl)urea], in data set [1], the “percent of compound remaining” value is “+++ (>60.1 = +++)”. Moreover, the “percent parent remaining after 60 min” value in data set [2] is reported as “+++ (>60.1 = +++)”. In addition, the EC50 in the data set on SREBP is above 500 nM.
With `CC(C)(C)c1cc(-c2csc(-c3ccc(NC(=O)NC4CCNCC4)cc3Cl)c2)ccn1` [Compound I-8755, 1-(4-(4-(2-(tert-butyl)pyridin-4-yl)thiophen-2-yl)-3-chlorophenyl)-3-(piperidin-4-yl)urea], in data set [1], the “percent of compound remaining” value was “+++ (>60.1 = +++)”. Further, the “percent parent remaining after 60 min” value in data set [2] is on record as “+++ (>60.1 = +++)”. The EC50 in the data set on SREBP is above 500 nM.
Turning to `CC(C)(C)c1cc(-c2csc(-c3ccc(NC(=O)NCCN4CCCC4)cc3Cl)c2)ccn1` [Compound I-8761, 1-(4-(4-(2-(tert-butyl)pyridin-4-yl)thiophen-2-yl)-3-chlorophenyl)-3-(2-(pyrrolidin-1-yl)ethyl)urea], the “percent of compound remaining” value in data set [1] is listed as “+++ (>60.1 = +++)”. Also, in data set [2], the “percent parent remaining after 60 min” value is “+++ (>60.1 = +++)”. Besides, the EC50 in the data set on SREBP was above 500 nM.
As for `CC(C)(C)c1cc(-c2csc(-c3ccc(NC(=O)OCCN4CCCC4)cc3Cl)c2)ccn1` [Compound I-8762, 2-(pyrrolidin-1-yl)ethyl (4-(4-(2-(tert-butyl)pyridin-4-yl)thiophen-2-yl)-3-chlorophenyl)carbamate], in data set [1], the “percent of compound remaining” value was “+++ (>60.1 = +++)”. Further, the “percent parent remaining after 60 min” value in data set [2] is listed as “+ (0-30 = +)”. Further, the 50% effective concentration (EC50) with SREBP is above 500 nM.
Taken in the same sequence, the figures for `CC(C)OC(=O)Nc1ccc(-c2cc(-c3ccnc(C(C)(C)CO)c3)cs2)c(Cl)c1` [Compound I-8907, Isopropyl (3-chloro-4-(4-(2-(1-hydroxy-2-methylpropan-2-yl)pyridin-4-yl)thiophen-2-yl)phenyl)carbamate] were “+++ (>60.1 = +++)”, “+++ (>60.1 = +++)” and 250 to 500 nM.
Taken in the same sequence, the figures for `CC(C)(CO)c1cc(-c2csc(-c3ccc(NC(=O)OC4CC4)cc3Cl)c2)ccn1` [Compound I-8918, Cyclopropyl (3-chloro-4-(4-(2-(1-hydroxy-2-methylpropan-2-yl)pyridin-4-yl)thiophen-2-yl)phenyl)carbamate] were “+++ (>60.1 = +++)”, “++ (30.1-60 = ++)” and 250 to 500 nM.
Taken in the same sequence, the figures for `CC(C)(CO)c1cc(-c2csc(-c3ccc(NC(=O)N4CCC(O)CC4)cc3Cl)c2)ccn1` [Compound I-8926, N-(3-chloro-4-(4-(2-(1-hydroxy-2-methylpropan-2-yl)pyridin-4-yl)thiophen-2-yl)phenyl)-4-hydroxypiperidine-1-carboxamide] were “++ (30.1-60 = ++)”, “+++ (>60.1 = +++)” and below 249 nM.
`CC(C)(CO)c1cc(-c2csc(-c3ccc(N4CCOC4=O)cc3Cl)c2)ccn1` [Compound I-8939, 3-(3-chloro-4-(4-(2-(1-hydroxy-2-methylpropan-2-yl)pyridin-4-yl)thiophen-2-yl)phenyl)oxazolidin-2-one]: in data set [1], the “percent of compound remaining” value is “++ (30.1-60 = ++)”. For the same compound, in data set [2], the “percent parent remaining after 60 min” value was “+++ (>60.1 = +++)”. Further, the EC50 in the data set with SREBP fell in the range of 250 to 500 nM.
In the case of `CC(C)(CO)c1cc(-c2csc(-c3ccc(NS(=O)(=O)C(F)(F)F)cc3Cl)c2)ccn1` [Compound I-8940, N-(3-chloro-4-(4-(2-(1-hydroxy-2-methylpropan-2-yl)pyridin-4-yl)thiophen-2-yl)phenyl)-1,1,1-trifluoromethanesulfonamide], the “percent of compound remaining” value in data set [1] was “+ (0-30 = +)”. Further, the “percent parent remaining after 60 min” value in data set [2] is “++ (30.1-60 = ++)”. The EC50 in the data set on SREBP was below 249 nM.
Take `CC(C)NS(=O)(=O)Nc1ccc(-c2cc(-c3ccnc(C(C)(C)CO)c3)cs2)c(Cl)c1` [Compound I-8941]: the “percent of compound remaining” value in data set [1] is “++ (30.1-60 = ++)”. Besides, the “percent parent remaining after 60 min” value in data set [2] is given as “++ (30.1-60 = ++)”. In addition, the EC50 in the data set with SREBP was below 249 nM.

The record behind these values is patent US20220056018A1, “SREBP INHIBITORS COMPRISING A THIOPHENE CENTRAL RING” (Capulus Therapeutics, LLC, priority 2019, published 2022).
